Data as given in patent US5194586A, “Anti-ATLA antibody binding peptides” (Kuraray Co., Ltd., priority 1989, dated 1993).
Several values for one entry are separate records, joined by “and”; a condition that tells them apart may be missing. Identical values can stand only once.

Test system: anti-ATLA antibody
Test: ELISA of Example 24: single peptides and 1:1 mixture, dried stored cups
Type: binding, human
Conditions: for OD492: listed as Ex. 9
Method: Each serum specimen was assayed for the presence of the anti-ATLA antibody by the following ELISA in which an absorbance was measured.
The peptide prepared in Example 1 or the peptide prepared in Reference Example 9 were each dissolved in 0.01M carbonate buffer (pH 9.5) to prepare a solution containing each peptide. In addition, a solution containing both peptides was prepared by mixing the above two solutions at a concentration ratio of 1:1 (the former:the latter). Each 100 μl of the resulting peptide solutions was added to a cup for ELISA made of polystyrene (the same as mentioned above) and the mixture was allowed to stand at 4° C. overnight so that the peptide is coated on the cup. After removing the peptide solution in these cups, to each cup was added PBS (200 μl ) containing 20% by volume of normal goat serum and the mixture was allowed to stand at room temperature for 3 hours to block non-specific protein binding sites. After removing the blocking solution in the cups, the cups were dried and stored at 4° C.
Using PBS containing 10% by volume of normal goat serum and 0.05% by volume of Tween 20 as a diluent, the diluent and each serum specimen (15 specimens of the ATLV-carrier serum and 15 specimens of the normal human serum) was mixed at a ratio of 20:1 (diluent:specimen; v/v) and each 100 μl of the resulting diluted serums was added to above each assay cup. After incubation at 37° C. for 1 hour, the cups were washed with PBS containing 0.05% by volume of Tween 20 (×3) and then with PBS (×1).
To each resulting assay cup was added PBS containing horseradish peroxidase conjugated goat anti-human IgG antibody (diluted at an optimal concentration with PBS containing 10% by volume of normal goat serum and 0.2% by volume of Tween 20; 100 μl ). After incubation at 37° C. for 30 minutes, these cups were washed with PBS containing 0.05% by volume of Tween 20 (×3) and then with PBS (×1). […] After the mixtures were allowed to stand at room temperature for 15 minutes, to each mixture was added 1N sulfuric acid (100 μl) to stop the reaction and an absorbance at 492 nm (OD492) of each reaction solution was measured.
Cutoff value was determined using the OD492 values of the fifteen normal human serums and used for determination as to whether the specimens are positive or negative for the anti-ATLA antibody. The cutoff value was calculated by the equation: cutoff value = ((mean value of OD492 values of the normal human serum) +2SD). When the presence of the anti-ATLA antibody in each serum specimen was assayed using this cutoff value, all ATLV-carrier serums were determined to be positive and all normal human serums were determined to be negative.

Example 9: peptide (I), X is -Lys-Lys-Lys-, A is the env peptide fragment (A-3); SEQ ID NO: 14 (KKKFLNTEPSQLPPTAPPLLPHSNLDHI)
OD492 (ATLV-carrier serum, individual specimens No. 1-15, diluent:specimen 20:1): 0.873 and 0.973 and 1.405 and 0.099 and 1.623 and 1.437 and 0.137 and 0.088 and 0.111 and 1.029 and 1.071 and 1.156 and 1.061 and 0.549 and 1.478
Cutoff value (mean OD492 of the normal human serum + 2SD): 0.158
Mean OD492 (mean of the fifteen normal human serums): 0.096
OD492 (normal human serum, individual specimens No. 1-15): 0.078 and 0.062 and 0.040 and 0.089 and 0.133 and 0.103 and 0.099 and 0.083 and 0.151 and 0.065 and 0.093 and 0.097 and 0.100 and 0.094 and 0.154
